According to article PMC9304416, “A phosphite-based screening platform for identification of enzymes favoring nonnatural cofactors” (Scientific Reports, 2022):

Target: T1, ME (malic enzyme) (Escherichia coli, UniProt P26616, L301R/Q392C, form not given)
T1 construct: gene maeA; C-terminal His6 tag kept; expressed in E. coli BW14329 from pTrc99K; crude lysate
Test: formazan (MTT/phenazine ethosulfate) absorbance at […] nm, crude lysate
Assay type: biochemical
Settings: 0.05 mM NCD; 5.0 mM L-malate; 50 mM HEPES pH 7.5; 10 mM MgCl2; room temperature

T1 sequence (P26616 whole entry L301R/Q392C, form open): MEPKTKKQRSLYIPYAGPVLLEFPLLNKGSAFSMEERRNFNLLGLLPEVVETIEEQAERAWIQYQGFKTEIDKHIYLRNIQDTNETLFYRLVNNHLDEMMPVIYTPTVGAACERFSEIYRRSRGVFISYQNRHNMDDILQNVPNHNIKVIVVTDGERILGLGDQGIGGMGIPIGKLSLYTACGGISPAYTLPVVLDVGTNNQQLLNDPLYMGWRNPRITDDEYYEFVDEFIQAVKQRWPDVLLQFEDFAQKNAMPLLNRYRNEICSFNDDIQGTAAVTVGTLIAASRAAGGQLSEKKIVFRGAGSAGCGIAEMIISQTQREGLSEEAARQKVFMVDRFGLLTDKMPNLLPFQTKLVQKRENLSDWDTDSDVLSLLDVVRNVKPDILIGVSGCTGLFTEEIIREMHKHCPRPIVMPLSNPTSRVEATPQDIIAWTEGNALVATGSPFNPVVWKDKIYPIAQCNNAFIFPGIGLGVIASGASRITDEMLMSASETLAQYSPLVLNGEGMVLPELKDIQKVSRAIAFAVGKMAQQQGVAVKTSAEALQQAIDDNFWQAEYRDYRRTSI

## NC(=O)c1ccc[n+]([C@@H]2O[C@H](COP(=O)(O)OP(=O)(O)OC[C@H]3O[C@@H](n4ccc(N)nc4=O)[C@H](O)[C@@H]3O)[C@@H](O)[C@H]2O)c1 [NCD]
  formazan (MTT/phenazine ethosulfate) absorbance at 570 nm, crude lysate: ME* or ME-NCD, activity of ME* or ME toward NCD
